pIC50: −log10 of the molar value.
Tests used:
[1] = tested on: Human alphaherpesvirus 1; assay: Antiviral activity against Herpes simplex virus 1; assay type: functional, organism-based; settings: Human alphaherpesvirus 1
[2] = tested on: Human alphaherpesvirus 2; assay: Antiviral activity against Herpes simplex virus 2; assay type: functional, organism-based; settings: Human alphaherpesvirus 2
[3] = tested on: Human immunodeficiency virus 1; assay: Antiviral activity against HIV1; assay type: functional, organism-based
[4] = tested on: Human immunodeficiency virus 2; assay: Antiviral activity against HIV2; assay type: functional, organism-based
[5] = tested on: Human betaherpesvirus 5; assay: Antiviral activity against Human cytomegalovirus; assay type: functional, organism-based; settings: Human betaherpesvirus 5
[6] = tested on: Vaccinia virus; assay: Antiviral activity against Vaccinia virus; assay type: functional, organism-based, Orthopoxvirus vaccinia; settings: Orthopoxvirus vaccinia
[7] = tested on: Human alphaherpesvirus 3; assay: Antiviral activity against Varicella zoster virus; assay type: functional, organism-based
[8] = tested on: Human papillomavirus; assay: Antiviral activity against Human papillomavirus; assay type: functional, organism-based
[9] = tested on: Cowpox virus; assay: Antiviral activity against Cowpox virus; assay type: functional, organism-based
[10] = tested on: Hepatitis B virus; assay: Antiviral activity against Hepatitis B virus; assay type: functional, organism-based
[11] = tested on: Hepatitis C virus; assay: Antiviral activity against Hepatitis C virus; assay type: functional, organism-based, Hepacivirus hominis; settings: Hepatitis C virus

`Nc1nc(N)c(-c2ccccc2)c(OCCOCP(=O)(O)O)n1` showed a pIC50 [1] of 8.92, a pIC50 [2] of 8.92 and a pIC50 [3] of 9.52. For the same compound, the pIC50 [4] was 9.52, the pIC50 [5] was 9.82 and the pIC50 [6] was 8.92. For the same compound, the pIC50 [7] was 9.82.

`O=C(O)CS(=O)(=O)c1cccc(COc2ccccc2)c1` was tested, and the pIC50 [8] was 4.10.

Compound `CC(C)(C)C(=O)OCOP(=O)(COCCn1cnc2c(N)ncnc21)OCOC(=O)C(C)(C)C` [ADEFOVIR DIPIVOXIL] has a pIC50 [9] of 4.89 and a pIC50 [6] of 5.29.

Compound `O=C(N/C(C(=O)N1CCCCC1)=C(/Cl)c1ccccc1)c1ccccc1` has a pIC50 [10] of 4.67.

`Nc1ncnc2c1ncn2/C=C1\CC1(F)CO` (configuration not stated) showed a pIC50 [10] of 4.82 and a pIC50 [7] of 4.08.

In the case of `CCOC(=O)C(C)NP1(=O)CO[C@@H](Cn2ccc(N)nc2=O)CO1` (some centres not stated), the pIC50 [9] was 4.59 and the pIC50 [6] was 4.82.

With `CCOc1ccc(Sc2nc(N)nc3c2ncn3CCOCP(=O)(OCC(F)(F)F)OCC(F)(F)F)cc1` the pIC50 [10] was 6.19.

For `Nc1nc(Sc2ccc([N+](=O)[O-])cc2)c2ncn(CCOCP(=O)(OCC(F)(F)F)OCC(F)(F)F)c2n1`, the pIC50 [10] was 6.28.

`CN(C)c1nc(N)nc2c1ncn2CCOCP(=O)(O)O` gave a pIC50 [9] of 4.28 and a pIC50 [6] of 4.46.

Compound `NC1c2[nH]cnc2N=CN1C[C@@H](CO)OCP(=O)(O)O` (some centres not stated) has a pIC50 [9] of 3.48.

Compound `O=S(=O)(O)CS(=O)(=O)c1ccc(-c2ccccc2)cc1` has a pIC50 [8] of 4.49.

Compound `O=C(O)CS(=O)(=O)c1ccc(-c2cccc(C(=O)N3CCOCC3)c2)cc1` has a pIC50 [8] of 4.66.

Work on `O=S(=O)(Cc1nnn[nH]1)c1ccc(-c2ccccc2)cc1` yielded a pIC50 [8] of 4.20.

For `Cc1ccccc1Sc1nc(N)nc2c1ncn2CCOCP(=O)(OCC(F)(F)F)OCC(F)(F)F`, the pIC50 [10] was 7.10.

`CCCCOc1ccc(Sc2nc(N)nc3c2ncn3CCOCP(=O)(OCC(F)(F)F)OCC(F)(F)F)cc1` gave a pIC50 [10] of 6.00.

`CC(C)(C(=O)O)S(=O)(=O)c1ccc(-c2ccccc2)cc1` was tested, and the pIC50 [8] was 4.10.

Compound `C=CCc1c(N)nc(N)n(CCOCP(=O)(O)O)c1=O` has a pIC50 [1] of 8.92, a pIC50 [2] of 9.11 and a pIC50 [3] of 9.52. It also gave a pIC50 [4] of 9.52, a pIC50 [6] of 8.92 and a pIC50 [7] of 9.82.

In the case of `Cc1cn([C@H]2C[C@H](N=[N+]=[N-])[C@@H](CO)O2)c(=O)[nH]c1=O` [ZIDOVUDINE], the pIC50 [3] was 8.30 and the pIC50 [4] was 8.30.

Compound `O=C(O)CSc1ccc(-c2ccccc2)cc1` has a pIC50 [8] of 4.10.

Work on `CN(C(=O)c1ccc(-c2ccc(S(=O)(=O)CC(=O)O)cc2)cc1)c1ccccc1` yielded a pIC50 [8] of 5.32.

`C[C@@H](NC(=O)c1cccc(-c2ccc(S(=O)(=O)CC(=O)O)cc2)c1)c1ccccc1` was tested, and the pIC50 [8] was 7.37.

`Nc1nc(N)n(CCOCP(=O)(O)O)c(=O)c1C1CC1` gave a pIC50 [1] of 8.92, a pIC50 [2] of 9.92 and a pIC50 [3] of 9.52. For the same compound, the pIC50 [4] was 9.52, the pIC50 [5] was 9.82 and the pIC50 [6] was 8.92.

`O=P(O)(O)CS(=O)(=O)c1ccc(-c2ccccc2)cc1` gave a pIC50 [8] of 4.52.

`O=C(NCc1cccc2ccccc12)c1cccc(-c2ccc(C(=O)C(F)(F)P(=O)(O)O)cc2)c1` gave a pIC50 [8] of 6.13.

`O=C(O)CS(=O)(=O)c1ccc(-c2ccc(CC(=O)Nc3ccccc3)cc2)cc1` was tested, and the pIC50 [8] was 6.80.

In the case of `CC(C)OC(=O)C(C)NP(=O)(COCCn1cnc2c(NC3CC3)nc(N)nc21)Oc1ccccc1` (configuration not stated), the pIC50 [9] was 5.59.

In the case of `COc1cccc(Sc2nc(N)nc3c2ncn3CCOCP(=O)(OCC(F)(F)F)OCC(F)(F)F)c1`, the pIC50 [10] was 7.40.

Work on `Cc1c(N)nc(N)n(CCOCP(=O)(O)O)c1=O` yielded a pIC50 [1] of 8.92, a pIC50 [2] of 9.92 and a pIC50 [3] of 9.52. It also gave a pIC50 [4] of 9.52 and a pIC50 [6] of 8.92.

Compound `COc1c(C)c2c(c(O)c1C/C=C(\C)CCC(=O)O)C(=O)OC2` [MYCOPHENOLIC ACID] has a pIC50 [9] of 5.49.

`O=C(O)CS(=O)(=O)c1ccc(-c2ccc(C(=O)Nc3ccccc3)cc2)cc1` was tested, and the pIC50 [8] was 5.89.

`O=C(O)CS(=O)(=O)c1ccc(NCCc2ccccc2)cc1` showed a pIC50 [8] of 4.17.

Compound `O=C(O)CS(=O)(=O)c1ccc(-c2cccc(CC(=O)NCc3ccccc3)c2)cc1` has a pIC50 [8] of 6.52.

Work on `Cc1cn([C@H]2C[C@H](OP(=O)(S)OC[C@H]3O[C@@H](n4cnc5c(N)ncnc54)C[C@@H]3O)[C@@H](COP(=O)(S)O[C@H]3C[C@H](n4ccc(N)nc4=O)O[C@@H]3CO)O2)c(=O)[nH]c1=O` (some centres not stated) yielded a pIC50 [10] of 5.68 and a pIC50 [11] of 6.00.

For `Nc1nc(O)c2ncn(CCC(CO)CO)c2n1` [PENCICLOVIR], the pIC50 [10] was 3.99.

Compound `O=c1[nH]c(=O)n([C@H]2C[C@H](O)[C@@H](CO)O2)cc1I` [IDOXURIDINE] has a pIC50 [9] of 5.70 and a pIC50 [6] of 5.22.

Compound `O=C(O)CS(=O)(=O)c1ccc(-c2ccc(C(=O)N(Cc3ccccc3)Cc3ccccc3)cc2)cc1` has a pIC50 [8] of 5.96.

`C=CCNc1nc(N)nc2c1ncn2CCOCP(=O)(O)O` gave a pIC50 [9] of 3.94 and a pIC50 [6] of 4.60.

Compound `O=C(O)CS(=O)(=O)c1ccc(-c2ccc(C(=O)NCc3ccccc3)cc2)cc1` has a pIC50 [8] of 6.29.

`O=c1[nH]c(=O)n([C@@H]2O[C@H](CO)[C@@H](O)[C@@H]2F)cc1I` [FIALURIDINE] gave a pIC50 [9] of 6.62.
